The target in one data set is mTOR (Homo sapiens, UniProt P42345). The data set is described as follows: mTOR HTR-FRET Assay. The class given is biochemical. How it is done: The following is an example of an assay that can be used to determine the mTOR inhibitory activity of a test compound. Reagents are prepared as follows:
“Simple TOR buffer” (used to dilute high glycerol TOR fraction): 10 mM Tris pH 7.4, 10 mM NaCl, 0.1% Tween-20, 1 mM DTT (from 1M stock frozen at −20° C. just prior to use). For convenience a large quantity of “Simple TOR buffer” w/o DTT can be stored at 4° C. It can be brought to room temperature and DTT added just prior to dilution of TOR fraction.
5XKB/5XMn/5×ATP solution (used to dilute substrate GST-p70S6kin 81 a.a. just prior to use) (40 ml screen quantity shown):
Enzyme solution: Dilute TOR fraction 1:14 in “Simple TOR Buffer”. For current lot that is 640 μg/ml TOR fraction diluted 14× to yield 45.7 μg/ml TOR in buffer (i.e. 7.85 ml TOR pooled fraction+102.1 ml Simple TOR buffer=110 ml 14× diluted TOR fraction). Each Enzyme Lot must be QC'd prior to assay.
Substrate solution: This may be prepared just prior to assay if preferred. Dilute 5.3 mg/ml GST-p70S6kinase fragment stock to 3.5 μg/ml (97 nM) working stock in 5XKB/5XMn/5×ATP solution (i.e. 26.41 μL (5.3 mg/ml) GST-p70S6+40 ml 5XKB/5XMn/5×ATP=40 ml 3.5 μg/ml (97 nM)).
Assay Buffer (for dilution of Antibodies used in Antibody Detection Reagent):
Antibody Detection Reagent (this reagent should be made just prior to addition to Assay Plates):
Using PlateTrak program (Screen) or Matrix Pipettor (SAR), 19.5 μL of diluted TOR fraction is added to assay plate in all test, reference or positive control wells. 19.5 μL of “Simple TOR buffer” is added to all negative control wells. If treating multiple plates with the same compounds, can increase volume of enzyme to multiples of 19.5 μL in a tall 384 well polypropylene plate.
Using EP3, 0.5 μl of test, reference or control DMSO is added to each well with mixing. Plates are incubated for 30 minutes at room temperature.
Using PlateTrak program (Screen) or Matrix Pipettor (SAR) 5 μL of 5XKB/5XMn/5×ATP/5× substrate solution is added to each well of the assay plate to start the reaction. The solutions are mixed well and incubated for 2 hours at room temperature.
Using PlateTrak program (Screen) or Matrix Pipettor (SAR) 5 μL of 60 mM EDTA is added to stop the reaction. The solutions are mixed well and allowed to sit for 15-20 minutes before the next step.
Using PlateTrak program (Screen) or Matrix Pipettor (SAR) 10 μl of Antibody Detection Reagent is added. The solutions are mixes well and incubated for 5 hours to O/N to allow antibodies to form complexes with phosphorylated substrate.
Plates are read on AnalystHT using protocol Multi-Method protocol.

Another data set addresses T1, IKK-2 (Homo sapiens, UniProt O14920, S177E/S181E).
T1 sequence (O14920 1-756 S177E/S181E): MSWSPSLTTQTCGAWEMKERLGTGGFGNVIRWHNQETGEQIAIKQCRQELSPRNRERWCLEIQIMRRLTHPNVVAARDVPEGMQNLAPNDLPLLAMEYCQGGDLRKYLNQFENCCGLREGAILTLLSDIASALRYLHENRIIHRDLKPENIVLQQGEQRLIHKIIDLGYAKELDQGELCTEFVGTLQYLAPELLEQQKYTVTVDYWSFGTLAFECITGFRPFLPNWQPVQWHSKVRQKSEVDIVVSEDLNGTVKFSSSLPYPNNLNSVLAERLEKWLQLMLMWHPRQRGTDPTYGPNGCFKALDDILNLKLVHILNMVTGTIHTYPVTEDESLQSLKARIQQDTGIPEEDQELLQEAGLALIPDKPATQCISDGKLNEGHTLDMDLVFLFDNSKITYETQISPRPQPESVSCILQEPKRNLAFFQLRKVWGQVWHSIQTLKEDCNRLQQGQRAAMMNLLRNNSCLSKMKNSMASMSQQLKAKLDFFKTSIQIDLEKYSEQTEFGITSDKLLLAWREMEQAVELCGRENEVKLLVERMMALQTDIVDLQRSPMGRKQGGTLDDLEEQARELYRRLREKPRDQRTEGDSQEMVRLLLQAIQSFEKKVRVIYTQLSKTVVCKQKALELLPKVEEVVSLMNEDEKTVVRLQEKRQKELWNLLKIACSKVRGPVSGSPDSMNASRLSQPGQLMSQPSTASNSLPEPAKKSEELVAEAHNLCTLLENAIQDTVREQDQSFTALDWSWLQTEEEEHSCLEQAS
The data set is described as follows: IKK-2 screening assay (IKK2EE 33P Assay / IKK2EE NEMO HTRF Assay). The class given is biochemical. How it is done:
The following is an example of an assay that can be used to determine the IKK2EE inhibitory activity of a test compound.
A reaction buffer (pH 7.8) is prepared containing HEPES (20 mM), MgCl2 (10 mM), EDTA (0.1 mM), DTT (1 mM) and Triton X-100 (0.004%). IKK2EE (0.75 μg/ml is used. GST-IKBα (50 μg/ml) is used as substrate. Adenosine 5′-triphosphate (1.5 μM with ^33P-ATP 5 nCi/μl) is used. Reactions are stopped with trichloroacetic acid (6.25%).
Appropriate amounts of test compounds or controls in 100% DMSO are added to the assay plate. A peptide-substrate solution (PSS) is prepared by adding peptide stock to an appropriate volume of buffer (peptide concentration in the PSS will be about 100 μg/ml). An enzyme-peptide solution (EPS) is prepared by adding enzyme stock to an appropriate volume of PSS (the enzyme concentration in the EPS will be about 1 μg/ml). An ATP solution is prepared by adding ATP stock to an appropriate volume of buffer (the ATP concentration will be 15 μM).
85 μl of EPS is added to the assay wells (or PSS to positive control wells) of 96 well polypropylene plates. The ATP solution is then completed by adding ^33P-ATP (to a final concentration of 50 μCi/ml).
The reaction is initiated by adding 10 μl ATP solution to each well. Plates are shaken from about 12 seconds and allowed to incubate at room temperature for 1 hours. 100 μl of trichloroacetic acid solution (12.5%) is added to stop the reaction and the plates are incubated at room temperature for at least 10 minutes. The assay plates are harvested onto a Millipore Multiscreen harvest Plate FC using an appropriate harvester and the harvest plates are washed with 1×PBS solution for about 10 seconds (continuous flow). Harvest plates are allowed to dry thoroughly and the bottoms of the plates are sealed. 20-50 μl of Microscint20 is added to each well, tops are sealed and plates are read using an appropriate scintillation counter.
A reaction buffer (pH 7.6) is prepared containing HEPES (20 mM), MgCl2 (10 mM), EDTA (0.05 mM), DTT (1 mM) and Triton X-100 (0.004%). IKK2EE-NEMO (0.7 μg/ml is used. GST-IKBα (0.5 μg/ml) is used as substrate. Adenosine 5′-triphosphate (1.5 μM) is used. Detection reagents used are mouse anti-P-IKBα (30 ng/ml), Eu anti-mouse (300 ng/ml) and Cy5 anti-GST (11.5 μg/ml). Reactions are stopped with EDTA (20 mM).
An enzyme solution (ES) is prepared by adding enzyme stock to an appropriate volume of buffer (enzyme concentration in the ES will be about 1.7 ng/ml). A detection mixture (DM) is prepared by adding ATP (final conc. 3.75 μM), mouse anti-P-IKBα (final conc. 75 ng/ml), GST-IKBα (final conc. 1.26 μg/ml), Eu anti-mouse in buffer (final conc. 750 ng/ml).
5 μl of compound (solvated in 10% DMSO) is added to assay wells (or 10% DMSO to control wells) of low binding reaction plates. […] ES is added to assay wells (or buffer to control wells) and the reaction is initiated by adding 10 μl DM to all wells. Plates are incubated at room temperature for 45 minutes. Stop mixture is prepared by adding EDTA (final conc. 70 mM) and Cy5 anti-GST (final conc. 40 μg/ml) to an appropriate volume of buffer. Stop mixture is added and plates are shaken for 20 seconds and incubated at room temperature for at least 3 hours (preferably in the dark). Plates are read on an Analyst HT using Multi-Method HTRF.
Background: In TR-FRET formats the signal depends on donor and acceptor labels being close together.

Molecules are shown by their SMILES. Bounds are passed on as bounds.

As to `COc1ccc(-n2c(=O)[nH]c3c(C(N)=O)nc(-c4cccc(O)c4)nc32)cc1` [Compound 12, 2-(3-hydroxyphenyl)-9-(4-methoxyphenyl)-8-oxo-8,9-dihydro-7H-purine-6-carboxamide], the melting point – broadly, the temperature, or range, at which the solid turns liquid – fell in the range of 386 to 388 °C. The IC50 (commonly the concentration needed to halve the response being measured) at mTOR was in the range of 0.1 to 5 µM. The same compound had a half-maximal inhibitory concentration (IC50) on IKK-2 of 20.1 to 30 µM.

Compound `NC(=O)c1nc(-c2cccnc2)nc2c1NC(=O)CN2c1ccccc1` [Compound 36, 6-oxo-8-phenyl-2-(pyridin-3-yl)-5,6,7,8-tetrahydropteridine-4-carboxamide] displayed a melting point of 294 to 296 °C. This compound also returned an IC50 against mTOR greater than 30 µM. The half-inhibitory concentration (IC50) against IKK-2 was greater than 30 µM.

The compound `NC(=O)c1nc(-c2cccc(O)c2)nc2c1[nH]c(=O)n2-c1ccccc1Cl` [Compound 14, 9-(2-chlorophenyl)-2-(3-hydroxyphenyl)-8-oxo-8,9-dihydro-7H-purine-6-carboxamide] gave a melting point of 360 to 364 °C. Besides, the concentration for half-maximal inhibition (IC50) against mTOR was in the range of 0.1 to 5 µM. Besides, the IC50 against IKK-2 is greater than 30 µM.

As for `COc1ncccc1-c1nc(C(N)=O)c2[nH]c(=O)n(-c3ccccc3)c2n1` [Compound 5, 2-(2-methoxypyridin-3-yl)-8-oxo-9-phenyl-8,9-dihydro-7H-purine-6-carboxamide], the melting point was 279 to 281 °C. For the same compound, the 50% inhibitory concentration (IC50) on mTOR is greater than 30 µM. The same compound showed an IC50 against IKK-2 greater than 30 µM.

`NC(=O)c1nc(-c2ccccn2)nc2c1[nH]c(=O)n2-c1ccccc1` [Compound 3, 8-oxo-9-phenyl-2-(pyridin-2-yl)-8,9-dihydro-7H-purine-6-carboxamide] showed a melting point of 347 to 349 °C. In addition, on IKK-2, the 50% inhibitory concentration (IC50) fell in the range of 20.1 to 30 µM.

`Cc1ccccc1-n1c(=O)[nH]c2c(C(N)=O)nc(-c3cccc(O)c3)nc21` [Compound 9, 2-(3-hydroxyphenyl)-8-oxo-9-o-tolyl-8,9-dihydro-7H-purine-6-carboxamide] displayed a melting point of 366 to 367 °C. Further, on mTOR, the IC50 was in the range of 5.1 to 10 µM. In addition, at IKK-2, the IC50 is greater than 30 µM.

Compound `NC(=O)c1nc(-c2cccnc2)nc2c1[nH]c(=O)n2Cc1ccccc1` [Compound 1, 9-benzyl-8-oxo-2-(pyridin-3-yl)-8,9-dihydro-7H-purine-6-carboxamide] registered a melting point of 334 to 335 °C. Moreover, the half-maximal inhibitory concentration (IC50) at mTOR lay within 10.1 to 20 µM. The half-inhibitory concentration (IC50) against IKK-2 was greater than 30 µM.

The compound `NC(=O)c1nc(-c2ccncc2)nc2c1NC(=O)CN2c1ccccc1` [Compound 37, 6-oxo-8-phenyl-2-(pyridin-4-yl)-5,6,7,8-tetrahydropteridine-4-carboxamide] returned a melting point of 298 to 304 °C. On mTOR, this compound returned an IC50 of 10.1 to 20 µM. This compound had an IC50 at IKK-2 greater than 30 µM.

Turning to `CNC(=O)c1nc(-c2cccnc2)nc2c1[nH]c(=O)n2-c1ccccc1` [Compound 2, N-methyl-8-oxo-9-phenyl-2-(pyridin-3-yl)-8,9-dihydro-7H-purine-6-carboxamide], the melting point is greater than 330 °C. The compound further came in with an IC50 on mTOR greater than 30 µM. At IKK-2, this compound came in with an IC50 greater than 30 µM.

With `NC(=O)c1nc(-c2cccc(O)c2)nc2c1[nH]c(=O)n2-c1ccccc1F` [Compound 15, 9-(2-fluorophenyl)-2-(3-hydroxyphenyl)-8-oxo-8,9-dihydro-7H-purine-6-carboxamide], the IC50 at mTOR is 0.1 to 5 µM; at IKK-2, greater than 30 µM.

On to `Cn1c(=O)[nH]c2c(C(N)=O)nc(-c3cccnc3)nc21` [Compound 7, 9-methyl-8-oxo-2-(pyridin-3-yl)-8,9-dihydro-7H-purine-6-carboxamide], for which the melting point is greater than 350 °C. Moreover, at IKK-2, the IC50 is greater than 30 µM.

In turn, `COc1ccccc1-n1c(=O)[nH]c2c(C(N)=O)nc(-c3cccc([N+](=O)[O-])c3)nc21` [Compound 26, 9-(2-methoxyphenyl)-2-(3-nitrophenyl)-8-oxo-8,9-dihydro-7H-purine-6-carboxamide] showed a melting point of 295 to 296 °C. Besides, at mTOR, the IC50 was greater than 30 µM.

With `NC(=O)c1nc(-c2cccnc2)nc2c1[nH]c(=O)n2C1CCN(C(=O)OCc2ccccc2)CC1` [Compound 32, benzyl 4-(6-carbamoyl-8-oxo-2-(pyridin-3-yl)-7H-purin-9(8H)-yl)piperidine-1-carboxylate], the IC50 against mTOR is 0.1 to 5 µM; against IKK-2, 10.1 to 20 µM.

As to `NC(=O)c1nc(-c2cccc(O)c2)nc2c1[nH]c(=O)n2C1CCCCC1` [Compound 33, 9-cyclohexyl-2-(3-hydroxyphenyl)-8-oxo-8,9-dihydro-7H-purine-6-carboxamide], the half-maximal inhibitory concentration (IC50) against mTOR is 0.1 to 5 µM; against IKK-2, greater than 30 µM.

Source of the values: US7968556B2, “Heteroaryl compounds, compositions thereof, and methods of treatment therewith” (Signal Pharmaceuticals, LLC, priority 2006, dated 2011).
